experiment: Induction of calcium transport in chloroform layer up to 7 to 11 hrs in presence of picrate; format: physicochemical; call rule not given here

Structure (SMILES) | Activity
O=C(O)COCC(=O)N1CCC(C(c2ccccc2)c2ccccc2)CC1 | Active
COc1ccccc1CC(C)N(C)C(=O)COCCOCC(=O)N(C)C(C)Cc1ccccc1OC (mixture of isomers) | Active
O=C(COCCOCC(=O)N1c2ccccc2C=Cc2ccccc21)N1c2ccccc2C=Cc2ccccc21 | Active
CC(CC1CCCCC1)N(C)C(=O)COCCOCC(=O)N(C)C(C)CC1CCCCC1 (mixture of isomers) | Active
CC(CC1CCCCC1)N(C)C(=O)COCC(=O)O (centres undefined) | Active

experiment: Induction of calcium transport in chloroform layer up to 7 to 11 hrs in absence of picrate; format: physicochemical

Structure (SMILES) | Activity
O=C(O)COCC(=O)N1CCC(C(c2ccccc2)c2ccccc2)CC1 | Active
COc1ccccc1CC(C)N(C)C(=O)COCCOCC(=O)N(C)C(C)Cc1ccccc1OC (mixture of isomers) | Active
O=C(COCCOCC(=O)N1c2ccccc2C=Cc2ccccc21)N1c2ccccc2C=Cc2ccccc21 | Active
CC(CC1CCCCC1)N(C)C(=O)COCCOCC(=O)N(C)C(C)CC1CCCCC1 (mixture of isomers) | Active
CC(CC1CCCCC1)N(C)C(=O)COCC(=O)O (centres undefined) | Active

experiment: Induction of sodium transport in chloroform layer up to 7 to 11 hrs; format: physicochemical

Structure (SMILES) | Activity
O=C(O)COCC(=O)NC12CC3CC(CC(C3)C1)C2 | Not Active
O=C(O)COCC(=O)N1CCC(C(c2ccccc2)c2ccccc2)CC1 | Not Active
COc1ccccc1CC(C)N(C)C(=O)COCCOCC(=O)N(C)C(C)Cc1ccccc1OC (mixture of isomers) | Not Active
O=C(COCCOCC(=O)N1c2ccccc2C=Cc2ccccc21)N1c2ccccc2C=Cc2ccccc21 | Not Active
O=C(O)COCC(=O)NCCc1ccccc1 | Not Active
O=C(COCCOCC(=O)NCCc1ccccc1)NCCc1ccccc1 | Not Active
CC(CC1CCCCC1)N(C)C(=O)COCCOCC(=O)N(C)C(C)CC1CCCCC1 (mixture of isomers) | Not Active
O=C(COCCOCC(=O)NC12CC3CC(CC(C3)C1)C2)NC12CC3CC(CC(C3)C1)C2 | Not Active
CC(CC1CCCCC1)N(C)C(=O)COCC(=O)O (centres undefined) | Not Active
CN(CCc1ccccc1)C(=O)COCC(=O)O | Not Active
O=C(COCCOCC(=O)NCCc1c[nH]c2ccccc12)NCCc1c[nH]c2ccccc12 | Not Active

experiment: Induction of magnesium transport in chloroform layer up to 3 hrs; format: physicochemical

Structure (SMILES) | Activity
O=C(O)COCC(=O)N1CCC(C(c2ccccc2)c2ccccc2)CC1 | Active
COc1ccccc1CC(C)N(C)C(=O)COCCOCC(=O)N(C)C(C)Cc1ccccc1OC (mixture of isomers) | Active
CC(CC1CCCCC1)N(C)C(=O)COCC(=O)O (centres undefined) | Active
